# Key:
# [1] = Rat pharmacokinetics, cassette dosing (IV and PO); type: in vivo; conditions: rat, plasma, male SD rats; for bioavailability: 5 mg/kg, oral AUC to IV AUC, dose adjusted; for IV clearance: IV 1 mg/kg; for AUC / Cmax / half-life: PO 5 mg/kg; for half-life: read-out: PO T½ (converted)
# Protocol: Male SD rats were fasted overnight. Compounds of the invention were dissolved in dimethyl acetamide at 10 times the final concentration, then Solutol HS 15 (BASF) was added to a final concentration of 10%. Finally 80% saline was added and vortexed to achieve a clear solution. For the IV dosing three animals were injected via the foot dorsal vein with 1 mg/kg compound. For the PO dosing 5 mg/kg of compound was delivered by oral gavage. Blood was collected via the tail vein into K2EDTA tubes at 5 minutes, 15 minutes, 30 minutes, 1 hour, 2 hours, 4 hours, 8 hours and 24 hours after dosing. The blood was centrifuged at 2000 g for 5 minutes at 4° C. to obtain plasma. The plasma was extracted with acetonitrile and the level of compound was analyzed by LC/MS/MS. The level of compound in plasma was calculated from a standard curve in rat plasma. The IV clearance (L/h/kg) and area under the curve (h*ng/mL) were calculated using WinNonLin software. The dose adjusted area under the curve for the IV and oral dosing were used to calculate the oral bioavailability.
# Pharmacokinetic properties were assessed in a rat cassette dosing experiment. The IV clearance (IV Clr.) is in units of L/hr/kg. The oral maximum plasma concentration (PO Cmax) is in units of ng/ml. The oral plasma half-life (PO T½) is in units of hours. The oral area under the curve (PO AUC) is in units of hours*ng/ml. The fraction absorbed by the oral route (F %) is a percentage of the oral area under the curve to the IV area under the curve, dose adjusted.
# HDAC2 = HDAC2 (Homo sapiens (Human), UniProt Q92769); test: HDAC enzyme assay HDAC2; type: biochemical
# Sequence of HDAC2 (Q92769 whole entry): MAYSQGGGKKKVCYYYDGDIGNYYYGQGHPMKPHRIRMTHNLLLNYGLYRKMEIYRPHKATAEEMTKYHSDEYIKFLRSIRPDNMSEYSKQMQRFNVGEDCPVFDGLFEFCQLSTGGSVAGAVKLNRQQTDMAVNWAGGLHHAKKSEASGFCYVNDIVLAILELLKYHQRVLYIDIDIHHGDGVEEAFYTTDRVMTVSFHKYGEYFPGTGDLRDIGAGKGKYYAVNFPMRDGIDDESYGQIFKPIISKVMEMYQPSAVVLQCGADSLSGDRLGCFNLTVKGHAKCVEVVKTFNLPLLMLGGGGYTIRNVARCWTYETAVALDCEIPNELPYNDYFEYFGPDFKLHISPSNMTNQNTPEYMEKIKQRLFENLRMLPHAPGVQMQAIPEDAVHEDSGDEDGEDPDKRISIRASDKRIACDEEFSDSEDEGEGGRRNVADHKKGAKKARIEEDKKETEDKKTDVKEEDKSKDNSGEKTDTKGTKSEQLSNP
# Protocol: Compounds for testing were diluted in DMSO to 50 fold the final concentration and a ten-point three-fold dilution series was made. The compounds were diluted in assay buffer (50 mM HEPES, pH 7.4, 100 mM KCl, 0.001% Tween-20, 0.05% BSA, 20 μM TCEP) to 6-fold their final concentration. The HDAC enzymes (purchased from BPS Biosciences) were diluted to 1.5-fold their final concentration in assay buffer. The tripeptide substrate and trypsin at 0.05 μM final concentration were diluted in assay buffer at 6-fold their final concentration. The final enzyme concentrations used in these assays were 3.3 ng/ml (HDAC1), 0.2 ng/ml (HDAC2) and 0.08 ng/ml (HDAC3). The final substrate concentrations used were 16 μM (HDAC1), 10 μM (HDAC2) and 17 μM (HDAC3).
# Five μl of compounds and 20 μl of enzyme were added to wells of a black, opaque 384 well plate in duplicate. Enzyme and compound were incubated together at room temperature for 10 minutes. Five μl of substrate was added to each well, the plate was shaken for 60 seconds and placed into a Victor 2 microtiter plate reader. The development of fluorescence was monitored for 60 min and the linear rate of the reaction was calculated. The IC50 was determined using Graph Pad Prism by a four parameter curve fit.
# HDAC1 = HDAC1 (Homo sapiens (Human), UniProt Q13547); test: HDAC enzyme assay HDAC1; type: biochemical
# Sequence of HDAC1 (Q13547 whole entry): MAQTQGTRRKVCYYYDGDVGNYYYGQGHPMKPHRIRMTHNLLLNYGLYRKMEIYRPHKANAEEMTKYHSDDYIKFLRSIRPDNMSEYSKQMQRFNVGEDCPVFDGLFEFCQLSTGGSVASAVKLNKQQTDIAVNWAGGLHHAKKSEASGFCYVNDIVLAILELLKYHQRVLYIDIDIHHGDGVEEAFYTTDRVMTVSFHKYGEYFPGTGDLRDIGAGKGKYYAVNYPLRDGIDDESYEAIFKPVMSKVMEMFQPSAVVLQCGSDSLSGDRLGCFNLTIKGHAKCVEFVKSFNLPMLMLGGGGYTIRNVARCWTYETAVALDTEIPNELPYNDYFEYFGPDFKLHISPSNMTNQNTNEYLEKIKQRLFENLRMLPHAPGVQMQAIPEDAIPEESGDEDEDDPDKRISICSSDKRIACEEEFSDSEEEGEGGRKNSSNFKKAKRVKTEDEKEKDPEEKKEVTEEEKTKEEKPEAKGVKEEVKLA
# HDAC3 = HDAC3 (Homo sapiens (Human), UniProt O15379); test: HDAC enzyme assay HDAC3; type: biochemical
# Sequence of HDAC3 (O15379 whole entry): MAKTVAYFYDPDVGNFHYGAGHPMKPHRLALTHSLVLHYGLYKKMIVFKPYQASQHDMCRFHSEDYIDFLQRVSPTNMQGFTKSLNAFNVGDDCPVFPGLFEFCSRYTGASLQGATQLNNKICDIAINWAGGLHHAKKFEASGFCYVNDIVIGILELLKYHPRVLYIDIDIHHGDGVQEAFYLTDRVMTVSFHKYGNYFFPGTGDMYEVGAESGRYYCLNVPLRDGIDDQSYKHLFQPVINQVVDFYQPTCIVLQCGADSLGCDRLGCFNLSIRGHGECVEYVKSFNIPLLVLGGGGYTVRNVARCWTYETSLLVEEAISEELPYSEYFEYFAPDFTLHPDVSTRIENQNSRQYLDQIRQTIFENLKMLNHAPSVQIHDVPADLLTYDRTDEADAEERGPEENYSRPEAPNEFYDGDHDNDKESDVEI
# Sequence of HDAC3 (Q9Y618 395-489 partner): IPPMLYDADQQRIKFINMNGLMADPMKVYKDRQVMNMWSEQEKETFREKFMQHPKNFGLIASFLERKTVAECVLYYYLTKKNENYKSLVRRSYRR
# Protocol: Compounds for testing were diluted in DMSO to 50 fold the final concentration and a ten-point three-fold dilution series was made. The compounds were diluted in assay buffer (50 mM HEPES, pH 7.4, 100 mM KCl, 0.001% Tween-20, 0.05% BSA, 20 μM TCEP) to 6-fold their final concentration. The HDAC enzymes (purchased from BPS Biosciences) were diluted to 1.5-fold their final concentration in assay buffer. The tripeptide substrate and trypsin at 0.05 μM final concentration were diluted in assay buffer at 6-fold their final concentration. The final enzyme concentrations used in these assays were 3.3 ng/ml (HDAC1), 0.2 ng/ml (HDAC2) and 0.08 ng/ml (HDAC3). The final substrate concentrations used were 16 μM (HDAC1), 10 μM (HDAC2) and 17 μM (HDAC3). Five μl of compounds and 20 μl of enzyme were added to wells of a black, opaque 384 well plate in duplicate. Enzyme and compound were incubated together at room temperature for 10 minutes. Five μl of substrate was added to each well, the plate was shaken for 60 seconds and placed into a Victor 2 microtiter plate reader. The development of fluorescence was monitored for 60 min and the linear rate of the reaction was calculated. The IC50 was determined using Graph Pad Prism by a four parameter curve fit. In Table 4 below, letter designations are defined as follows: […]
smiles,measurement,setting,value
Nc1ccc(-c2ccccc2)cc1NC(=O)c1ccc2nc(N3CCNCC3)ccc2c1 [Compound 002],bioavailability,[1],86.1%
same,IV clearance,[1],2 mL/min/kg
same,AUC,[1],34600 ng·h/mL
same,Cmax,[1],3750 ng/mL
same,half-life,[1],5.9 h
Nc1ccc(-c2ccoc2)cc1NC(=O)c1ccc2nc(N3CCNCC3)ccc2c1 [Compound 004],bioavailability,[1],90.8%
same,IV clearance,[1],0.667 mL/min/kg
same,AUC,[1],91900 ng·h/mL
same,Cmax,[1],10400 ng/mL
same,half-life,[1],4.3 h
Nc1ccc(-c2ccco2)cc1NC(=O)c1ccc(N2CCNCC2)nc1 [Compound 008],bioavailability,[1],100%
same,IV clearance,[1],14.3 mL/min/kg
same,AUC,[1],5540 ng·h/mL
same,Cmax,[1],536 ng/mL
same,half-life,[1],5.6 h
Nc1ccc(-c2ccncc2)cc1NC(=O)c1ccc(N2CCNCC2)nc1 [Compound 010],bioavailability,[1],12.6%
same,IV clearance,[1],18.3 mL/min/kg
same,AUC,[1],570 ng·h/mL
same,Cmax,[1],164 ng/mL
same,half-life,[1],4.7 h
Nc1ccc(-c2cccs2)cc1NC(=O)c1ccc(N2CCNCC2)cc1 [Compound 012],bioavailability,[1],93.9%
same,IV clearance,[1],8.83 mL/min/kg
same,AUC,[1],8190 ng·h/mL
same,Cmax,[1],534 ng/mL
same,half-life,[1],7.7 h
Nc1ccc(-c2ccco2)cc1NC(=O)c1ccc(N2CCNCC2)cc1 [Compound 013],bioavailability,[1],105%
same,IV clearance,[1],13 mL/min/kg
same,AUC,[1],5780 ng·h/mL
same,Cmax,[1],425 ng/mL
same,half-life,[1],8.1 h
Nc1ccc(-c2ccoc2)cc1NC(=O)c1ccc(N2CCNCC2)cc1 [Compound 014],bioavailability,[1],97%
same,IV clearance,[1],11 mL/min/kg
same,AUC,[1],7100 ng·h/mL
same,Cmax,[1],727 ng/mL
same,half-life,[1],4.9 h
Nc1ccc(-c2cccs2)cc1NC(=O)c1cnc2cc(N3CCNCC3)ccc2c1 [Compound 023],bioavailability,[1],51.2%
same,IV clearance,[1],6 mL/min/kg
same,AUC,[1],6370 ng·h/mL
same,Cmax,[1],664 ng/mL
same,half-life,[1],8.5 h
Nc1ccc(-c2ccco2)cc1NC(=O)c1cnc2cc(N3CCNCC3)ccc2c1 [Compound 024],bioavailability,[1],36.3%
same,IV clearance,[1],3.5 mL/min/kg
same,AUC,[1],8220 ng·h/mL
same,Cmax,[1],1000 ng/mL
same,half-life,[1],4.4 h
Nc1ccc(-c2cccs2)cc1NC(=O)c1ccc(N2CCNCC2)s1 [Compound 033],bioavailability,[1],191%
same,IV clearance,[1],10.8 mL/min/kg
same,AUC,[1],10700 ng·h/mL
same,Cmax,[1],614 ng/mL
same,half-life,[1],13.7 h
Nc1ccc(-c2ccco2)cc1NC(=O)c1cnc(N2CCNCC2)s1 [Compound 034],IC50,HDAC2,10 to 500 nM
same,IC50,HDAC1,< 10 nM
same,IC50,HDAC3,10 to 500 nM
Nc1ccc(-c2ccc(F)cc2)cc1NC(=O)c1cnc(N2CCNCC2)s1 [Compound 037],IC50,HDAC2,10 to 500 nM
same,IC50,HDAC1,< 10 nM
same,IC50,HDAC3,10 to 500 nM
Cc1nc(C(=O)Nc2cc(-c3cccs3)ccc2N)sc1N1CCNCC1 [Compound 041],IC50,HDAC2,10 to 500 nM
same,IC50,HDAC1,< 10 nM
same,IC50,HDAC3,10 to 500 nM
Cc1nc(C(=O)Nc2cc(-c3ccco3)ccc2N)sc1N1CCNCC1 [Compound 042],IC50,HDAC2,10 to 500 nM
same,IC50,HDAC1,< 10 nM
same,IC50,HDAC3,10 to 500 nM
Cc1nc(C(=O)Nc2cc(-c3ccoc3)ccc2N)sc1N1CCNCC1 [Compound 043],IC50,HDAC2,10 to 500 nM
same,IC50,HDAC1,< 10 nM
same,IC50,HDAC3,> 500 nM
Nc1ccc(-c2ccccn2)cc1NC(=O)c1cnc(N2CCNCC2)s1 [Compound 044],IC50,HDAC2,10 to 500 nM
same,IC50,HDAC1,10 to 500 nM
same,IC50,HDAC3,> 500 nM
Nc1ccc(-c2cccnc2)cc1NC(=O)c1cnc(N2CCNCC2)s1 [Compound 045],IC50,HDAC2,10 to 500 nM
same,IC50,HDAC1,10 to 500 nM
same,IC50,HDAC3,10 to 500 nM
Nc1ccc(-c2ccoc2)cc1NC(=O)c1cnc(N2CCNCC2)s1 [Compound 046],IC50,HDAC2,10 to 500 nM
same,IC50,HDAC1,< 10 nM
same,IC50,HDAC3,10 to 500 nM
Nc1ccc(-c2ccccc2)cc1NC(=O)c1cnc(N2CCNCC2)s1 [Compound 047],IC50,HDAC2,10 to 500 nM
same,IC50,HDAC1,< 10 nM
same,IC50,HDAC3,> 500 nM
CN1CCN(c2ncc(C(=O)Nc3cc(-c4ccccc4)ccc3N)s2)CC1 [Compound 048],IC50,HDAC2,10 to 500 nM
same,IC50,HDAC1,< 10 nM
same,IC50,HDAC3,> 500 nM
Nc1ccc(-c2ccccc2)cc1NC(=O)c1ncc(N2CCNCC2)s1 [Compound 049],IC50,HDAC2,10 to 500 nM
same,IC50,HDAC3,10 to 500 nM
Nc1ccc(-c2ccco2)cc1NC(=O)c1ncc(N2CCNCC2)s1 [Compound 050],IC50,HDAC2,10 to 500 nM
same,IC50,HDAC1,< 10 nM
same,IC50,HDAC3,10 to 500 nM
Nc1ccc(-c2ccoc2)cc1NC(=O)c1ncc(N2CCNCC2)s1 [Compound 051],IC50,HDAC2,< 10 nM
same,IC50,HDAC1,< 10 nM
same,IC50,HDAC3,10 to 500 nM
Nc1ccc(-c2ccncc2)cc1NC(=O)c1ncc(N2CCNCC2)s1 [Compound 052],IC50,HDAC2,10 to 500 nM
same,IC50,HDAC1,< 10 nM
same,IC50,HDAC3,10 to 500 nM
Nc1ccc(-c2ccc(F)cc2)cc1NC(=O)c1ncc(N2CCNCC2)s1 [Compound 053],IC50,HDAC2,< 10 nM
same,IC50,HDAC1,< 10 nM
same,IC50,HDAC3,10 to 500 nM
CN1CCN(c2cnc(C(=O)Nc3cc(-c4ccco4)ccc3N)s2)CC1 [Compound 054],IC50,HDAC2,10 to 500 nM
same,IC50,HDAC1,< 10 nM
same,IC50,HDAC3,10 to 500 nM
Nc1ccc(-c2ccco2)cc1NC(=O)c1nc(N2CCNCC2)cs1 [Compound 055],IC50,HDAC2,10 to 500 nM
same,IC50,HDAC1,> 500 nM
same,IC50,HDAC3,> 500 nM
Nc1ccc(-c2ccoc2)cc1NC(=O)c1nc(N2CCNCC2)cs1 [Compound 056],IC50,HDAC2,10 to 500 nM
same,IC50,HDAC1,10 to 500 nM
same,IC50,HDAC3,> 500 nM
Nc1ccc(-c2ccncc2)cc1NC(=O)c1nc(N2CCNCC2)cs1 [Compound 057],IC50,HDAC2,10 to 500 nM
same,IC50,HDAC1,> 500 nM
same,IC50,HDAC3,> 500 nM
Nc1ccc(-c2ccc(F)cc2)cc1NC(=O)c1nc(N2CCNCC2)cs1 [Compound 058],IC50,HDAC2,10 to 500 nM
same,IC50,HDAC1,10 to 500 nM
same,IC50,HDAC3,10 to 500 nM
Nc1ccc(-c2cccs2)cc1NC(=O)c1csc(N2CCNCC2)n1 [Compound 059],IC50,HDAC2,10 to 500 nM
same,IC50,HDAC1,> 500 nM
same,IC50,HDAC3,10 to 500 nM
Nc1ccc(-c2cccs2)cc1NC(=O)c1cnc(N2CCNCC2)o1 [Compound 060],IC50,HDAC2,> 500 nM
same,IC50,HDAC1,> 500 nM
same,IC50,HDAC3,> 500 nM
Nc1ccc(-c2ccco2)cc1NC(=O)c1cnc(N2CCNCC2)o1 [Compound 061],IC50,HDAC2,> 500 nM
same,IC50,HDAC1,> 500 nM
same,IC50,HDAC3,> 500 nM
Nc1ccc(-c2ccccc2)cc1NC(=O)c1cnc(N2CCNCC2)o1 [Compound 062],IC50,HDAC2,> 500 nM
same,IC50,HDAC1,> 500 nM
same,IC50,HDAC3,> 500 nM
Nc1ccc(-c2ccc(F)cc2)cc1NC(=O)c1cnc(N2CCNCC2)o1 [Compound 063],IC50,HDAC2,> 500 nM
same,IC50,HDAC1,> 500 nM
same,IC50,HDAC3,> 500 nM
Nc1ccc(-c2ccccc2)cc1NC(=O)c1ccc(N2CCNCC2)s1 [Compound 064],IC50,HDAC2,10 to 500 nM
same,IC50,HDAC1,< 10 nM
same,IC50,HDAC3,10 to 500 nM
Nc1ccc(-c2ccco2)cc1NC(=O)c1ccc(N2CCNCC2)s1 [Compound 065],IC50,HDAC2,10 to 500 nM
same,IC50,HDAC1,< 10 nM
same,IC50,HDAC3,10 to 500 nM
Nc1ccc(-c2ccoc2)cc1NC(=O)c1ccc(N2CCNCC2)s1 [Compound 066],IC50,HDAC2,10 to 500 nM
same,IC50,HDAC1,< 10 nM
same,IC50,HDAC3,10 to 500 nM
Nc1ccc(-c2ccncc2)cc1NC(=O)c1ccc(N2CCNCC2)s1 [Compound 067],IC50,HDAC2,10 to 500 nM
same,IC50,HDAC1,< 10 nM
same,IC50,HDAC3,10 to 500 nM
CN1CCN(c2ccc(C(=O)Nc3cc(-c4cccs4)ccc3N)cn2)CC1 [Compound 071],IC50,HDAC2,10 to 500 nM
same,IC50,HDAC3,10 to 500 nM

# Reference: patent publication US10385031B2, “Substituted piperazines as selective HDAC1,2 inhibitors” (Regenacy Pharmaceuticals, LLC, priority 2016, dated 2019)
